Assay results as given in PMC6891749, “[b]-Annulated Halogen-Substituted Indoles as Potential DYRK1A Inhibitors” (Molecules, 2019).
≈ marks a conversion by molar mass, not a printed value. Counter-ions that a name gives are not always drawn. Like-named read-outs stand apart in the source and are kept apart here.

Experiments:
RnDYRK1A-kd = RnDYRK1A-kd (Rattus norvegicus, UniProt Q63470); experiment: ADP-Glo luminescent kinase assay; assay type: biochemical, Rn; details: for DYRK1A inhibitory activity (in words): ADP-Glo assay
Protocol: (§1) Protein kinase assays with the derivatives 11–15 were carried out by radiometric methods using protein kinases, reagents, and conditions as described before. The DYRK1A inhibitory activities of the Mannich bases 16, 27 and 28 were assayed in 384-well plates using the ADP-GloTM assay kit (Promega, Madison, WI) according to the recommendations of the manufacturer. This assay is a luminescent ADP detection assay that provides a homogeneous and high-throughput screening method to measure kinase activity by quantifying the amount of ADP produced during a kinase reaction. Briefly, the reactions were carried out in a final volume of 6 µL for 30 min at 30 °C in appropriate kinase buffer, with either protein or peptide as substrate in the presence of 10 µM ATP. After that, 6 µL of ADP-GloTM Kinase Reagent was added to stop the kinase reaction. After an incubation time of 50 min at room temperature (rt), 12 µL of Kinase Detection Reagent was added for one hour at rt. The transmitted signal was measured using the Envision (PerkinElmer, Waltham, MA) microplate luminometer and expressed in Relative Light Units (RLU). In order to determine the half maximal inhibitory concentration (IC50), the assays were performed in duplicate in the absence or presence of increasing doses of the tested compounds. Kinase activities are expressed in % of maximal activity, i.e. measured in the absence of inhibitor. The peptide substrate was obtained from Proteogenix (Schiltigheim, France). RnDYRK1A-kd was assayed in buffer A with 0.033 μg/µl of the peptide […] as substrate (buffer A: 10 mM MgCl2, 1 mM EGTA, 1 mM DTT, 25 mM Tris-HCl pH 7.5, 50 µg/mL heparin). All data points for construction of dose response curves were recorded in triplicate. Typically, the standard deviation of single data points was below 10%.

[1] = Kinetic solubility, laser nephelometry; assay type: physicochemical; details: for solubility kinetic: aqueous phosphate buffer, aqueous buffer, kinetic from dmso stock, phosphate buffer pH 7.4, nephelometry, mean value and range, read-out: Sexp., kin., pH 7.4 (kinetic solubility)
Protocol: The kinetic solubility was determined using laser nephelometry. A stock solution based on the results of the thermodynamic solubility measurement of the test compounds in DMSO was prepared. The stock solution was diluted with DMSO to get different concentrations. The DMSO dilutions (5 µL) were placed on a 96-well plate filled with aqueous phosphate buffer pH 7.4 (195 µL, same buffer as for thermodynamic solubility). Two dilution series of the stock solution were measured. A blank was determined for every measurement. The well plate was scanned by a nephelometer (Nephelostar Plus, BMG Labtech, Ortenberg, Germany). Precipitated particles scatter the laser light which is detected by the nephelometer. The intensity of the scattered light is assumed to be proportional to the particle concentration in the suspension. The different concentrations were plotted versus the intensities measured by the nephelometer. The resulting kick-off curves led directly to the kinetic solubility by determining the intersection of the linear straight line paralleling the x axis and the linear slope.

[2] = Thermodynamic solubility, shake-flask method with HPLC; assay type: physicochemical; details: aqueous phosphate buffer, thermodynamic from solid, phosphate buffer pH 7.4, shake-flask, 25 °C, mean value and range, read-out: Sexp., therm., pH 7.4 (thermodynamic solubility)
Protocol: For determination of thermodynamic solubility an aqueous phosphate buffer at pH 7.4 with sodium chloride was used. The buffer was prepared by dissolving Na2HPO4 × 2 H2O (298 mg), KH2PO4 (19 mg) and NaCl (800 mg) in water (100 mL). The pH was adjusted to 7.4 by addition of aq. hydrochloric acid (3 mol/L). The thermodynamic solubility was determined using a shake-flask method with quantification by a buffer-HPLC method. […] The mixtures were shaken at 25 °C and 400 rpm for 24 and 48 h (IKA KS 3000 ic control, IKA-Werke, Staufen, Germany). For each time (24 and 48 h) two independent measurements at two different detection wavelengths (254 and 280 nm) were determined. After 24 h and 48 h the mixtures were inspected for remaining solids. The concentrations in the resulting saturated solutions were quantified by isocratic HPLC with external standard calibration. […] For calibration, a stock solution of the test compounds in DMSO was prepared and diluted with DMSO to suitable concentrations. The AUC at the wavelength 254 nm and 280 nm was used for quantification.

CLK1 = CLK1 (Mus musculus, UniProt P22518); experiment: Protein kinase assay, radiometric; assay type: biochemical; details: dose response curves, triplicates
Protocol: (§2) The new compounds 11–16 were tested on an array of protein kinases of the CMGC family. First, the kinases were incubated with 10 µM solutions of the test compounds and the residual activities compared to controls were measured. The IC50 values of promising compounds were then determined from concentration-response curves (Table 1).
as §1

CDK9 = CDK9 (Homo sapiens, UniProt P50750); experiment: Protein kinase assay, radiometric; assay type: biochemical; details: dose response curves, triplicates
Protocol: as §2, §1

CDK1 [3] = experiment: Protein kinase assay, radiometric; assay type: biochemical; details: dose response curves, triplicates
Protocol: as §2, §1

CDK2 = CDK2 (Homo sapiens, UniProt P24941); experiment: Protein kinase assay, radiometric; assay type: biochemical; details: dose response curves, triplicates
Protocol: as §2, §1

DYRK1A [4] = target: T1, DYRK1A (Homo sapiens, UniProt Q13627); experiment: Protein kinase assay, radiometric; assay type: biochemical; details: dose response curves, triplicates
Protocol: as §2, §1

CDK5 = CDK5 (Homo sapiens, UniProt Q00535); experiment: Protein kinase assay, radiometric; assay type: biochemical; details: dose response curves, triplicates
Protocol: as §2, §1

GSK-3 = experiment: Protein kinase assay, radiometric; assay type: biochemical; details: dose response curves, triplicates
Protocol: as §2, §1

CK1 = experiment: Protein kinase assay, radiometric; assay type: biochemical; details: dose response curves, triplicates
Protocol: as §2, §1

MAO-A = test system: MAO-A; set-up: method as in PMID 15010457, PMID 20981014; details: cited from earlier work
CDK1 [5] = test system: CDK1; set-up: method as in Falke et al. [34]; details: radiometric; ref Falke et al. [34]; cited from earlier work
DYRK1A [6] = target: T1, DYRK1A; set-up: method as in PMID 25264830, PMID 27766861; details: cited from earlier work
DYRK1B = test system: DYRK1B; set-up: method as in PMID 25264830, PMID 27766861; details: cited from earlier work

Chain of CDK9 (P50750 whole entry, species assumed): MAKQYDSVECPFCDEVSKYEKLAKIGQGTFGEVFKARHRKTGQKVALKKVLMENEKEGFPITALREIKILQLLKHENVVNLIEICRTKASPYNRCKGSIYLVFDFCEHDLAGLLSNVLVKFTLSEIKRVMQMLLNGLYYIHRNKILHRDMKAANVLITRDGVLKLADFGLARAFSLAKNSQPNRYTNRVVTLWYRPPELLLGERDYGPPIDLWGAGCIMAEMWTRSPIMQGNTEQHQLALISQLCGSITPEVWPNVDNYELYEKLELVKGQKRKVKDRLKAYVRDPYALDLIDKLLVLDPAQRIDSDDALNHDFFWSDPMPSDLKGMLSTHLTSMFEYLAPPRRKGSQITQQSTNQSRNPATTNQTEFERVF
Chain of CDK9 (O60563 whole entry partner, species assumed): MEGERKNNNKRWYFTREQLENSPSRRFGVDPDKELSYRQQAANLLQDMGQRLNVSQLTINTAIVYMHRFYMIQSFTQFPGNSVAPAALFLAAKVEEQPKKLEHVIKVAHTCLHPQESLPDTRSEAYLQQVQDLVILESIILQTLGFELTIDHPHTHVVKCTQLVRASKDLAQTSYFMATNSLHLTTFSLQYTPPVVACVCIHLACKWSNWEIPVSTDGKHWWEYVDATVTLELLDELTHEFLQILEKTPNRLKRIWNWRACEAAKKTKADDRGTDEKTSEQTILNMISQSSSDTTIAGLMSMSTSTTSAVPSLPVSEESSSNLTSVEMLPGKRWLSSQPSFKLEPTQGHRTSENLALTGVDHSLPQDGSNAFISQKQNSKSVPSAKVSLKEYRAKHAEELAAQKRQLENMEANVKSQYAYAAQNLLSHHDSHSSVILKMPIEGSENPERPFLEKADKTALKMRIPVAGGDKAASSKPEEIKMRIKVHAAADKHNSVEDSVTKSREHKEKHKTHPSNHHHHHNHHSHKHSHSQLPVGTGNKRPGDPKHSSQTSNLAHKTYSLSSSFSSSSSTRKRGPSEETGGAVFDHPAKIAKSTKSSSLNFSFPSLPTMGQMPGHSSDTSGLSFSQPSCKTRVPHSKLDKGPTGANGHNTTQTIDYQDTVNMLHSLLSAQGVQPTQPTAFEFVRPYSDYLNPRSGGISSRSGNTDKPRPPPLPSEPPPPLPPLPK
Chain of CDK5 (Q00535 whole entry, species assumed): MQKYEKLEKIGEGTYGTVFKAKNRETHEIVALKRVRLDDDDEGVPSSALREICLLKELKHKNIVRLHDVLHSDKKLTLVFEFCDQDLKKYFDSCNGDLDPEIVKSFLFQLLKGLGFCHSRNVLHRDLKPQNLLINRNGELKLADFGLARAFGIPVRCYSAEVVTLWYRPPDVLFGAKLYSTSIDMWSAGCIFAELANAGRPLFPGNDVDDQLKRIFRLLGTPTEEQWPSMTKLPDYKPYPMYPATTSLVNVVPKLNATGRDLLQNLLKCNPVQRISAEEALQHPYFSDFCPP
Chain of CDK5 (Q15078 99-307 partner limits assumed, species assumed): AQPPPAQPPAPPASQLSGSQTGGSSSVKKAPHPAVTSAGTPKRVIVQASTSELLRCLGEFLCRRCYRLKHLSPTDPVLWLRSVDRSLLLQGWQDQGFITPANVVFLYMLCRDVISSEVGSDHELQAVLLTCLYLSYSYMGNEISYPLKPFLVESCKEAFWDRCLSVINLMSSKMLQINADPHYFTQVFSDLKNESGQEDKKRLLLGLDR
Chain of CLK1 (P22518 whole entry): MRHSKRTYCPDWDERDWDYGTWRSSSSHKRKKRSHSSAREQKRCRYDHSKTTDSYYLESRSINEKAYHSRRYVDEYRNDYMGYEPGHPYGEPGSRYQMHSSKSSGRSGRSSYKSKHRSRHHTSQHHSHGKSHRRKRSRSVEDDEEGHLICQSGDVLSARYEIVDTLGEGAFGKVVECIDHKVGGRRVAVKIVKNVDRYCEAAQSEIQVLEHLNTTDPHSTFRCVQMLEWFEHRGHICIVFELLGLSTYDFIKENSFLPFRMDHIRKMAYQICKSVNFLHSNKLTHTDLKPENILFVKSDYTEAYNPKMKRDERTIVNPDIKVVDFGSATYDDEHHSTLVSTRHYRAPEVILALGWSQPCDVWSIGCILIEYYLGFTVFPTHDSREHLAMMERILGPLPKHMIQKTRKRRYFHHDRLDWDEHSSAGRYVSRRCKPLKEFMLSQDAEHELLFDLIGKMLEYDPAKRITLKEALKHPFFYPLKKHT

Structure (SMILES)	IC50 (CLK1)	IC50 (CDK9)	IC50 (CDK1 [3])	IC50 (CDK2)	IC50 (DYRK1A [4])	IC50 (CDK5)	IC50 (GSK-3)	IC50 (CK1)	further results
CN(C)CC1CCc2[nH]c3c(Cl)cccc3c2C1=O (racemic) [compound 28, (R,S)-8-Chloro-3-[(dimethylamino)methyl]-1,2,3,9-tetrahydro-4H-carbazol-4-one hydrochloride]	–	–	–	–	–	–	–	–	DYRK1A inhibitory activity (in words) (RnDYRK1A-kd): inactive
O=C1c2c([nH]c3c(Cl)cccc23)CCC1CN1CCCCC1 (racemic) [compound 16, (R,S)-8-Chloro-3-(piperidin-1-ylmethyl)-1,2,3,9-tetrahydro-4H-carbazol-4-one hydrochloride]	–	–	–	–	–	–	–	–	DYRK1A inhibitory activity (in words) (RnDYRK1A-kd): complete loss of DYRK1A inhibitory activity; IC50 (RnDYRK1A-kd; ADP-Glo assay kit, 10 µM ATP, read-out: IC50 DYRK1A): > 10 µM; solubility kinetic [1]: 2310 µM; solubility thermodynamic [2]: 13600 µM
O=C1NCCc2[nH]c3c(Cl)cccc3c21 [compound 14, 6-Chloro-2,3,4,5-tetrahydro-1H-pyrido[4,3-b]indol-1-one]	0.12 µM	0.88 µM	1.2 µM	1.7 µM	0.19 µM	0.81 µM	2.7 µM	3.6 µM	–
CCN1/C(=C/C(C)=O)Sc2ccc(O)cc21 [compound 4]	–	–	–	–	–	–	–	–	MAO-A inhibition (MAO-A): no MAO-A inhibition
O=C1NCCCc2[nH]c3c(Cl)cccc3c21 [compound 15, 7-Chloro-3,4,5,6-tetrahydroazepino[4,3-b]indol-1(2H)-one]	0.32 µM	2.2 µM	7 µM	2.5 µM	2.2 µM	2.5 µM	> 10 µM	4.2 µM	–
O=C(O)c1nc2ccccc2c2[nH]c3c(I)cccc3c12 [compound 10, reference compound]	–	–	–	–	–	–	–	–	IC50 (CDK1 [5]): > 10 µM; solubility kinetic [1]: 5.28 µM (≈ 2.05 µg/mL); solubility thermodynamic [2]: < 5 µM
O=C1c2c([nH]c3c(Cl)cccc23)CCC1CN1CCOCC1 (racemic) [compound 27, (R,S)-8-Chloro-3-(morpholinomethyl)-1,2,3,9-tetrahydro-4H-carbazol-4-one hydrochloride]	–	–	–	–	–	–	–	–	DYRK1A inhibitory activity (in words) (RnDYRK1A-kd): inactive
O=C1CCc2[nH]c3c(Cl)cccc3c21 [compound 12, 5-Chloro-3,4-dihydrocyclopenta[b]indol-1(2H)-one]	0.89 µM	> 10 µM	> 10 µM	> 10 µM	0.71 µM	> 10 µM	> 10 µM	> 10 µM	–
O=C1CCCc2[nH]c3c(Cl)cccc3c21 [compound 13, 8-Chloro-1,2,3,9-tetrahydro-4H-carbazol-4-one]	0.3 µM	–	–	–	1.6 µM	8.2 µM	4.4 µM	> 10 µM	–
COC(=N)c1nc2ccc3ncnc(Nc4ccc(Cl)cc4Cl)c3c2s1 [compound 7]	–	–	–	–	–	–	–	–	Activity on DYRK1A (DYRK1A [6]): subnanomolar; Activity on DYRK1B (DYRK1B): subnanomolar
O=c1ccccc2[nH]c3c(Cl)cccc3c12 [compound 11, 4-Chlorocyclohepta[b]indol-10(5H)-one]	0.17 µM	> 10 µM	> 10 µM	> 10 µM	0.2 µM	> 10 µM	> 10 µM	> 10 µM	solubility kinetic [1]: 26.1 µM (≈ 5.99 µg/mL); Improvement of kinetic solubility compared to 10 ([1]; phosphate buffer pH 7.4): fivefold improved solubility; solubility thermodynamic [2]: < 5 µM
